Assay results from ChEMBL document CHEMBL5728174 (2020).

Key:
[1] = (§1) After a 3-day incubation at 37° C. cell viability was determined by the MTT method as described by Pauwels et al. (J. Virol. Methods 1988, 20, 309-321).To determine the cytotoxicity, cells were seeded at an initial density of 1×10^6 cells/mL in 96 well plates containing Minimum Essential Medium with Earles's salts (MEM-E), L-glutamine, 1 mM sodium pyruvate and 25 mg/L kanamycin, supplemented with 10% fetal bovine serum. Cell cultures were then incubated at 37° C. in a humidified 5% CO2 atmosphere in the absence or presence of serial dilutions of test compounds. Cell viability was determined by the MTT method.; format: cell-based
[2] = as §1; format: cell-based; remark: listed apart in the source

Measured: EC50

CC(C)OC(=O)[C@H](C)N[P@](=O)(OCC1O[C@@H](n2ccc(=O)[nH]c2=O)[C@](C)(F)[C@@H]1O)Oc1ccccc1 (some centres undefined)
> 100 µM: [1] | [1]; 72 h | [2] | [2]; BHK-21, 72 h
